Laboratory results as given in the supplement of paper PMC13380429.

Tests used:
Settings in all cases: 72 h
Caco-2 [1] = assay: drug sensitivity score (DSS) for viability; higher = more toxic; extreme values may be limits of the assay
Calu-3 [2] = assay: as above
Vero E6 [3] = assay: as above
HepG2 [4] = assay: as above
U2OS [5] = assay: as above
Caco-2 [6] = assay: cell viability relative to DMSO; higher = less toxic
Calu-3 [7] = assay: as above
Vero E6 [8] = assay: as above
HepG2 [9] = assay: as above
U2OS [10] = assay: as above
Caco-2 [11] = assay: relative viability EC50 (midpoint between 100% and the lowest measured viability); higher = less toxic
Calu-3 [12] = assay: as above
Vero E6 [13] = assay: as above
HepG2 [14] = assay: as above
U2OS [15] = assay: as above

Row | Compound | drug sensitivity score (Caco-2 [1]) | drug sensitivity score (Calu-3 [2]) | drug sensitivity score (Vero E6 [3]) | drug sensitivity score (HepG2 [4]) | drug sensitivity score (U2OS [5]) | cell viability (Caco-2 [6]; 1 nM) | cell viability (Caco-2 [6]; 10 nM) | cell viability (Caco-2 [6]; 100 nM) | cell viability (Caco-2 [6]; 1000 nM) | cell viability (Caco-2 [6]; 10000 nM) | cell viability (Calu-3 [7]; 1 nM) | cell viability (Calu-3 [7]; 10 nM) | cell viability (Calu-3 [7]; 100 nM) | cell viability (Calu-3 [7]; 1000 nM) | cell viability (Calu-3 [7]; 10000 nM) | cell viability (Vero E6 [8]; 1 nM) | cell viability (Vero E6 [8]; 10 nM) | cell viability (Vero E6 [8]; 100 nM) | cell viability (Vero E6 [8]; 1000 nM) | cell viability (Vero E6 [8]; 10000 nM) | cell viability (HepG2 [9]; 1 nM) | cell viability (HepG2 [9]; 10 nM) | cell viability (HepG2 [9]; 100 nM) | cell viability (HepG2 [9]; 1000 nM) | cell viability (HepG2 [9]; 10000 nM) | cell viability (U2OS [10]; 1 nM) | cell viability (U2OS [10]; 10 nM) | cell viability (U2OS [10]; 100 nM) | cell viability (U2OS [10]; 1000 nM) | cell viability (U2OS [10]; 10000 nM) | relative viability EC50 (Caco-2 [11]) | relative viability EC50 (Calu-3 [12]) | relative viability EC50 (Vero E6 [13]) | relative viability EC50 (HepG2 [14]) | relative viability EC50 (U2OS [15])
1 | CCCOCCn1c(=O)c(N2CCN(CCO)CC2)nc2cnc(-c3ccc(OC)nc3)cc21 | 0.1 | 0 | 0 | 0 | 0 | 102% | 92.3% | 94.4% | 86.8% | 93.6% | 99.5% | 88.8% | 98.9% | 94.2% | 104% | 109% | 107% | 100% | 107% | 92.8% | 109% | 105% | 98.8% | 104% | 87.1% | 95.5% | 97.4% | 103% | 95.5% | 99.8% | > 10 µM | > 10 µM | > 10 µM | > 10 µM | > 10 µM
2 | Cc1cc(C(=O)Nc2cc(Oc3ccc4nc(NC(=O)C5CC5)cn4n3)ccc2C)n(C)n1 [TAK-593] | 0.9 | 0 | 0 | 0.7 | 0 | 98.4% | 99% | 93.2% | 97.6% | 80.5% | 94.6% | 102% | 97.6% | 101% | 98.3% | 99.6% | 101% | 96.3% | 95.4% | 91.1% | 99.1% | 95.5% | 93.1% | 104% | 75.4% | 101% | 103% | 98.4% | 95.1% | 94.1% | > 10 µM | > 10 µM | > 10 µM | > 10 µM | > 10 µM
3 | CN1CCC(=C2c3ccccc3CC(=O)c3sccc32)CC1 [ketotifen] | 0.1 | 0 | 0.4 | 0.8 | 0 | 110% | 101% | 94.1% | 89.7% | 96.3% | 108% | 93% | 101% | 95.5% | 105% | 99.4% | 93.6% | 96.4% | 98.4% | 84.9% | 98.5% | 96.9% | 112% | 92.9% | 84.9% | 101% | 99.3% | 103% | 96% | 103% | > 10 µM | > 10 µM | > 10 µM | > 10 µM | > 10 µM
4 | CCC(COC(=O)c1cc(OC)c(OC)c(OC)c1)(c1ccccc1)N(C)C (stereo not given) [trimebutine] | 0 | 0 | 0 | 0 | 0 | 94.5% | 93.1% | 95.4% | 91.3% | 88.4% | 97.5% | 104% | 100% | 95.6% | 100% | 98.2% | 102% | 98.4% | 100% | 98.2% | 99.8% | 104% | 103% | 96.7% | 96.9% | 94.8% | 101% | 102% | 97.2% | 92.6% | > 10 µM | > 10 µM | > 10 µM | > 10 µM | > 10 µM
